Reference: the supplement of paper PMC10733146

Key:
Experiment in all cases: viability relative to DMSO control (fraction); higher = less drug effect (more viable cells)
Conditions in all cases: 48 h
Chlorambucil = compound: O=C(O)CCCc1ccc(N(CCCl)CCCl)cc1 [Chlorambucil]
How it was run: (§1)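 In 384-well plates with compounds pre-plated at five concentrations (one well per concentration), primary mononuclear tumour cells were plated at 4 × 10^4 cells per well. The cells came from blood or bone marrow by Ficoll isolation or from processed lymph node, and were used fresh or cryopreserved. Culture ran for 48 h at 37 °C and 5% CO2 in RPMI-1640 containing penicillin/streptomycin, L-glutamine and human serum. Viability was read as CellTiter-Glo luminescence, normalised to the median of 16 inner DMSO wells.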

SGC 0946 = compound: CC(C)N(CCCNC(=O)Nc1ccc(C(C)(C)C)cc1)C[C@H]1O[C@@H](n2cc(Br)c3c(N)ncnc32)[C@H](O)[C@@H]1O [SGC 0946]
How it was run: as §1

Pomalidomide = compound: Nc1cccc2c1C(=O)N(C1CCC(=O)NC1=O)C2=O [Pomalidomide]
How it was run: as §1

[1] = compound: O=C(NO)c1cccc(C(=O)NCCc2ccccc2)c1
How it was run: as §1

Venetoclax = compound: CC1(C)CCC(CN2CCN(c3ccc(C(=O)NS(=O)(=O)c4ccc(NCC5CCOCC5)c([N+](=O)[O-])c4)c(Oc4cnc5[nH]ccc5c4)c3)CC2)=C(c2ccc(Cl)cc2)C1 [Venetoclax]
How it was run: as §1

CPI-169 = compound: CCS(=O)(=O)N1CCC([C@@H](C)n2c(C)c(C(=O)NCc3c(OC)cc(C)[nH]c3=O)c3ccccc32)CC1 [CPI-169]
How it was run: as §1

I-BET-762 = compound: CCNC(=O)C[C@@H]1N=C(c2ccc(Cl)cc2)c2cc(OC)ccc2-n2c(C)nnc21 [I-BET-762]
How it was run: as §1

Bendamustine = compound: Cn1c(CCCC(=O)O)nc2cc(N(CCCl)CCCl)ccc21 [Bendamustine]
How it was run: as §1

Thalidomide = compound: O=C1CCC(N2C(=O)c3ccccc3C2=O)C(=O)N1 [Thalidomide]
How it was run: as §1

Tofacitinib = compound: C[C@@H]1CCN(C(=O)CC#N)C[C@@H]1N(C)c1ncnc2[nH]ccc12 [Tofacitinib]
How it was run: as §1

Filgotinib = compound: O=C(Nc1nc2cccc(-c3ccc(CN4CCS(=O)(=O)CC4)cc3)n2n1)C1CC1 [Filgotinib]
How it was run: as §1

EPZ-6438 = compound: CCN(c1cc(-c2ccc(CN3CCOCC3)cc2)cc(C(=O)NCc2c(C)cc(C)[nH]c2=O)c1C)C1CCOCC1 [EPZ-6438]
How it was run: as §1

Question: How did the viability (Chlorambucil; 0.032 µM) turn out when primary DLBCL patient cells (S076) was run?
Answer: 1.02

Question: And the viability (Chlorambucil; 0.16 µM)?
Answer: 0.886

Question: What about the viability (Chlorambucil; 0.8 µM) of the same test system?
Answer: 1.03

Question: What about the viability (Chlorambucil; 4 µM) of the same test system?
Answer: 0.858

Question: What about the viability (Chlorambucil; 20 µM) of the same test system?
Answer: 0.431

Question: And the viability (SGC 0946; 0.024 µM)?
Answer: 1.15

Question: What about the viability (SGC 0946; 0.12 µM) of the same test system?
Answer: 1.16

Question: What about the viability (SGC 0946; 0.6 µM) of the same test system?
Answer: 0.962

Question: What about the viability (SGC 0946; 3 µM) of the same test system?
Answer: 1.06

Question: And the viability (SGC 0946; 15 µM)?
Answer: 0.534

Question: What about the viability (Pomalidomide; 0.0032 µM) of the same test system?
Answer: 0.926

Question: What about the viability (Pomalidomide; 0.016 µM) of the same test system?
Answer: 1.07

Question: What about the viability (Pomalidomide; 0.08 µM) of the same test system?
Answer: 1.08

Question: What about the viability (Pomalidomide; 0.4 µM) of the same test system?
Answer: 0.84

Question: What about the viability (Pomalidomide; 2 µM) of the same test system?
Answer: 1.05

Question: And the viability ([1]; 0.024 µM)?
Answer: 1.15

Question: What about the viability ([1]; 0.12 µM) of the same test system?
Answer: 1.12

Question: What about the viability ([1]; 0.6 µM) of the same test system?
Answer: 1.09

Question: What about the viability ([1]; 3 µM) of the same test system?
Answer: 1.13

Question: And the viability ([1]; 15 µM)?
Answer: 1.17

Question: What about the viability (Venetoclax; 0.00064 µM) of the same test system?
Answer: 1.09

Question: What about the viability (Venetoclax; 0.0032 µM) of the same test system?
Answer: 1.01

Question: And the viability (Venetoclax; 0.016 µM)?
Answer: 0.622

Question: And the viability (Venetoclax; 0.08 µM)?
Answer: 0.451

Question: And the viability (Venetoclax; 0.4 µM)?
Answer: 0.374

Question: And the viability (CPI-169; 0.024 µM)?
Answer: 1.04

Question: And the viability (CPI-169; 0.12 µM)?
Answer: 1.04

Question: And the viability (CPI-169; 0.6 µM)?
Answer: 1.07

Question: And the viability (CPI-169; 3 µM)?
Answer: 0.993

Question: What about the viability (CPI-169; 15 µM) of the same test system?
Answer: 1.05

Question: And the viability (I-BET-762; 0.008 µM)?
Answer: 1.08

Question: What about the viability (I-BET-762; 0.04 µM) of the same test system?
Answer: 1.04

Question: And the viability (I-BET-762; 0.2 µM)?
Answer: 0.94

Question: What about the viability (I-BET-762; 1 µM) of the same test system?
Answer: 0.82

Question: What about the viability (I-BET-762; 5 µM) of the same test system?
Answer: 0.738

Question: What about the viability (Bendamustine; 0.032 µM) of the same test system?
Answer: 0.945

Question: And the viability (Bendamustine; 0.16 µM)?
Answer: 1.1

Question: What about the viability (Bendamustine; 0.8 µM) of the same test system?
Answer: 1.08

Question: What about the viability (Bendamustine; 4 µM) of the same test system?
Answer: 0.965

Question: What about the viability (Bendamustine; 20 µM) of the same test system?
Answer: 0.759

Question: What about the viability (Thalidomide; 0.032 µM) of the same test system?
Answer: 1.06

Question: And the viability (Thalidomide; 0.16 µM)?
Answer: 0.993

Question: And the viability (Thalidomide; 0.8 µM)?
Answer: 1.09

Question: What about the viability (Thalidomide; 4 µM) of the same test system?
Answer: 1.11

Question: And the viability (Thalidomide; 20 µM)?
Answer: 1.06

Question: What about the viability (Tofacitinib; 0.024 µM) of the same test system?
Answer: 0.916

Question: And the viability (Tofacitinib; 0.12 µM)?
Answer: 0.864

Question: What about the viability (Tofacitinib; 0.6 µM) of the same test system?
Answer: 0.818

Question: What about the viability (Tofacitinib; 3 µM) of the same test system?
Answer: 0.823

Question: What about the viability (Tofacitinib; 15 µM) of the same test system?
Answer: 0.824

Question: And the viability (Filgotinib; 0.024 µM)?
Answer: 1.02

Question: What about the viability (Filgotinib; 0.12 µM) of the same test system?
Answer: 1.03

Question: What about the viability (Filgotinib; 0.6 µM) of the same test system?
Answer: 0.966

Question: And the viability (Filgotinib; 3 µM)?
Answer: 0.911

Question: What about the viability (Filgotinib; 15 µM) of the same test system?
Answer: 0.348

Question: What about the viability (EPZ-6438; 0.024 µM) of the same test system?
Answer: 1.13

Question: What about the viability (EPZ-6438; 0.12 µM) of the same test system?
Answer: 1.09

Question: What about the viability (EPZ-6438; 0.6 µM) of the same test system?
Answer: 1.18

Question: What about the viability (EPZ-6438; 3 µM) of the same test system?
Answer: 1.17

Question: And the viability (EPZ-6438; 15 µM)?
Answer: 1.03

Question: How did the viability (Chlorambucil; 0.032 µM) turn out when primary T-NHL patient cells (S058) was run?
Answer: 1.02

Question: And the viability (Chlorambucil; 0.16 µM)?
Answer: 0.938

Question: What about the viability (Chlorambucil; 0.8 µM) of the same test system?
Answer: 0.932

Question: And the viability (Chlorambucil; 4 µM)?
Answer: 0.81

Question: And the viability (Chlorambucil; 20 µM)?
Answer: 0.262

Question: What about the viability (SGC 0946; 0.024 µM) of the same test system?
Answer: 1.19

Question: And the viability (SGC 0946; 0.12 µM)?
Answer: 1.12

Question: What about the viability (SGC 0946; 0.6 µM) of the same test system?
Answer: 0.867

Question: What about the viability (SGC 0946; 3 µM) of the same test system?
Answer: 1.01

Question: And the viability (SGC 0946; 15 µM)?
Answer: 0.486

Question: What about the viability (Pomalidomide; 0.0032 µM) of the same test system?
Answer: 0.937

Question: What about the viability (Pomalidomide; 0.016 µM) of the same test system?
Answer: 1.16

Question: And the viability (Pomalidomide; 0.08 µM)?
Answer: 1.27

Question: And the viability (Pomalidomide; 0.4 µM)?
Answer: 0.858

Question: What about the viability (Pomalidomide; 2 µM) of the same test system?
Answer: 1.2

Question: What about the viability ([1]; 0.024 µM) of the same test system?
Answer: 1.02

Question: What about the viability ([1]; 0.12 µM) of the same test system?
Answer: 1.31

Question: And the viability ([1]; 0.6 µM)?
Answer: 1.07

Question: What about the viability ([1]; 3 µM) of the same test system?
Answer: 1.02

Question: And the viability ([1]; 15 µM)?
Answer: 1.08

Question: What about the viability (Venetoclax; 0.00064 µM) of the same test system?
Answer: 1.06

Question: And the viability (Venetoclax; 0.0032 µM)?
Answer: 1.13

Question: What about the viability (Venetoclax; 0.016 µM) of the same test system?
Answer: 0.921

Question: What about the viability (Venetoclax; 0.08 µM) of the same test system?
Answer: 0.718

Question: What about the viability (Venetoclax; 0.4 µM) of the same test system?
Answer: 0.547

Question: What about the viability (CPI-169; 0.024 µM) of the same test system?
Answer: 1.03

Question: And the viability (CPI-169; 0.12 µM)?
Answer: 1.06

Question: And the viability (CPI-169; 0.6 µM)?
Answer: 0.995

Question: What about the viability (CPI-169; 3 µM) of the same test system?
Answer: 1.05

Question: What about the viability (CPI-169; 15 µM) of the same test system?
Answer: 0.961

Question: What about the viability (I-BET-762; 0.008 µM) of the same test system?
Answer: 1.17

Question: And the viability (I-BET-762; 0.04 µM)?
Answer: 1.03

Question: And the viability (I-BET-762; 0.2 µM)?
Answer: 0.904

Question: And the viability (I-BET-762; 1 µM)?
Answer: 0.816

Question: What about the viability (I-BET-762; 5 µM) of the same test system?
Answer: 0.61

Question: What about the viability (Bendamustine; 0.032 µM) of the same test system?
Answer: 0.971

Question: And the viability (Bendamustine; 0.16 µM)?
Answer: 1.01

Question: And the viability (Bendamustine; 0.8 µM)?
Answer: 0.925

Question: And the viability (Bendamustine; 4 µM)?
Answer: 0.868

Question: What about the viability (Bendamustine; 20 µM) of the same test system?
Answer: 0.564

Question: What about the viability (Thalidomide; 0.032 µM) of the same test system?
Answer: 1.03

Question: What about the viability (Thalidomide; 0.16 µM) of the same test system?
Answer: 1.02

Question: And the viability (Thalidomide; 0.8 µM)?
Answer: 1.07

Question: And the viability (Thalidomide; 4 µM)?
Answer: 1.14

Question: And the viability (Thalidomide; 20 µM)?
Answer: 1.02

Question: What about the viability (Tofacitinib; 0.024 µM) of the same test system?
Answer: 0.865

Question: And the viability (Tofacitinib; 0.12 µM)?
Answer: 0.895

Question: And the viability (Tofacitinib; 0.6 µM)?
Answer: 0.94

Question: And the viability (Tofacitinib; 3 µM)?
Answer: 0.935

Question: What about the viability (Tofacitinib; 15 µM) of the same test system?
Answer: 0.937

Question: And the viability (Filgotinib; 0.024 µM)?
Answer: 0.912

Question: What about the viability (Filgotinib; 0.12 µM) of the same test system?
Answer: 0.985

Question: And the viability (Filgotinib; 0.6 µM)?
Answer: 0.904

Question: And the viability (Filgotinib; 3 µM)?
Answer: 0.875

Question: And the viability (Filgotinib; 15 µM)?
Answer: 0.524

Question: And the viability (EPZ-6438; 0.024 µM)?
Answer: 1.21

Question: And the viability (EPZ-6438; 0.12 µM)?
Answer: 1.24

Question: What about the viability (EPZ-6438; 0.6 µM) of the same test system?
Answer: 1.03

Question: What about the viability (EPZ-6438; 3 µM) of the same test system?
Answer: 1.16

Question: What about the viability (EPZ-6438; 15 µM) of the same test system?
Answer: 0.95
